The values that follow come from patent US8114877B2, “Organic compounds” (Novartis AG, priority 2005, dated 2012).

Each structure is given as a SMILES string. Counter-ions that a name gives are not always drawn.

For the test, the target named is adenosine A2A receptor (Homo sapiens, UniProt P29274). Kind of test: adenosine A2A receptor agonist assay, method of Murphree et al, Molecular Pharmacology 61, 455-462 (2002). Format: binding. The settings on record: method of L. J. Murphree et al. The source says:
Compounds of formula I and their pharmaceutically acceptable salts are useful as pharmaceuticals. In particular, they activate the adenosine A2A receptor, i.e. they act as A2A receptor agonists.

adenosine A2A receptor, sequence (P29274 whole entry): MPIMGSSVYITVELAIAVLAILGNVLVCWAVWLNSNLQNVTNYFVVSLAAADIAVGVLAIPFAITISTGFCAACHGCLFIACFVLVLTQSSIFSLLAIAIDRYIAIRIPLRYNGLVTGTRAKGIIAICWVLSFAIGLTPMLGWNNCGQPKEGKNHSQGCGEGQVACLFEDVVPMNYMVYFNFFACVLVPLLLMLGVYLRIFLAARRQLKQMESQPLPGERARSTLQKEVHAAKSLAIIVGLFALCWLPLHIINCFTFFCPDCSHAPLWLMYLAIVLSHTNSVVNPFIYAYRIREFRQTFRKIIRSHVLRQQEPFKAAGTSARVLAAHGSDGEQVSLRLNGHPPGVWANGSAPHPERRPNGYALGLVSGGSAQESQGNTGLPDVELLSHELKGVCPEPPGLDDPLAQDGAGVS

Take `NC1CCC(Nc2nc(NCC(c3ccccc3)c3ccccc3)c3ncn(C4CC(n5cccn5)C(O)C4O)c3n2)CC1` [Example 12, (1R,2S,3R,1S)-3-[2-(4-Amino-cyclohexylamino)-6-(2,2-diphenyl-ethylamino)-purin-9-yl]-5-pyrazol-1-yl-cyclopentane-1,2-diol]: the Ki was 272 nM.

`Cc1nnn([C@H]2C[C@@H](n3cnc4c(NCC(c5ccccc5)c5ccccc5)nc(N[C@@H]5CCNC5)nc43)[C@H](O)[C@@H]2O)n1` [Example 7, (1R,2S,3R,5S)-3-[6-(2,2-Diphenyl-ethylamino)-2-((R)-pyrrolidin-3-ylamino)-purin-9-yl]-5-(5-methyl-tetrazol-2-yl)-cyclopentane-1,2-diol trifluoroacetate] returned a Ki of 43 nM.
